In article PMC12348882, “Rational Design, Synthesis and In Vitro Activity of Diastereomeric Cis-/Trans-3-Substituted-3,4-Dihydroisocoumarin-4-Carboxylic Acids as Potential Carnitine Acetyltransferase Inhibitors” (Molecules, 2025):
“Also recorded” adds a separate entry of the source.

Tests used:
[1] = biological target: T1, carnitine acetyltransferase (CAT) (Columba livia, UniProt P52826); assay: Initial screening of CAT inhibition, spectrophotometric kinetic method with Ellman's reagent; assay type: biochemical; details: read in first minute of reaction; for inhibition at 100 µM: read-out: CAT inhibition (%), inhibitor 100 μM; for inhibition at 250 µM: read-out: CAT inhibition (%), inhibitor 250 μM; for inhibition at 1000 µM: read-out: CAT inhibition (%), inhibitor 1000 μM
T1 construct: an enzyme isolated from pigeon breast muscle (Sigma Aldrich) was used in the form of an ammonium sulfate suspension; tissue Sigma-Aldrich; host or cells: pigeon breast muscle
T1 sequence (P52826 31-627): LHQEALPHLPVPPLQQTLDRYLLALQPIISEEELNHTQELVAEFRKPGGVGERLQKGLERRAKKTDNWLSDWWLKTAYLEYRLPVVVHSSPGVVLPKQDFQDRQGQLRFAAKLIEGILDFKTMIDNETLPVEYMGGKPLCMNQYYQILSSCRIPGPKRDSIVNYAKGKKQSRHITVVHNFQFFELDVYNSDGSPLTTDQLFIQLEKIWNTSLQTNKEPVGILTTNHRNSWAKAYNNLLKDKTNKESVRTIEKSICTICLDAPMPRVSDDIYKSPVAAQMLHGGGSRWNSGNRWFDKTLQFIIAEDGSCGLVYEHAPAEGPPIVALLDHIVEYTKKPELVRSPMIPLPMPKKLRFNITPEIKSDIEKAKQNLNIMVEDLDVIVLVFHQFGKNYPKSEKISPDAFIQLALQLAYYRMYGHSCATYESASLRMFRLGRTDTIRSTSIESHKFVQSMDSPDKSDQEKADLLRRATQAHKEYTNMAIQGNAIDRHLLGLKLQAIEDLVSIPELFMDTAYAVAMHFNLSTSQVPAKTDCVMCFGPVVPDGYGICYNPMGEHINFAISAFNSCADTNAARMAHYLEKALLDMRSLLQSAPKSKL
Description: To assess the inhibitory potential of the synthesized compounds against CAT, we conducted an initial screening at three concentrations: 100 μM, 250 μM and 1000 μM. Readings were taken within the first minute after the reaction started, and inhibition was measured using a kinetic method, as described in the Experimental section. The results are summarized and presented as a percentage of inhibition in Figure 2 and Figure 3 for the 3-alkyl-3,4-dihydroisocoumarin-4-carboxylic acids and the 3-alkyl/3-aryl-6,7-dimethoxy-3,4-dihydroisocoumarin-4-carboxylic acids, respectively.
To determine the effect of the synthesized compounds on CAT activity, a modified procedure for spectrophotometric determination of L-carnitine using Ellman’s reagent was used. In all analyses, an enzyme isolated from pigeon breast muscle (Sigma Aldrich) was used in the form of an ammonium sulfate suspension with an activity of 71 U/mg protein. One unit of enzyme catalyzes the conversion of 1 μmol of L-carnitine and acetyl-CoA into acetylcarnitine and free CoA in 1 min. Phosphate buffer (0.5 M, pH = 7.6) is used to dilute the enzyme to obtain a stock solution with a concentration of 24 U/mL.
Ellman’s reagent was prepared immediately before each measurement by dissolving 25 mg DTNB in 5 mL 1 mM solution of Na2EDTA in phosphate buffer (0.5 M, pH = 7.6). Stock solutions of acetyl-CoA and L-carnitine were prepared in deionized water with concentrations of 348.0 μM and 303.4, respectively. An aqueous solution of tris (hydroxymethyl) aminomethane (TRIS) with pH = 7.6 and 1 M concentration was used as a buffer solution. Test compounds were dissolved and diluted in phosphate buffer (0.5 M, pH = 7.6) to the desired stock concentration. The working volume of the reaction is 300 μL and contains 50 μL of each of the six components (DTNB, TRIS, acetyl-CoA, CAT, L-carnitine and inhibitor) solutions with concentrations as described below. In the control samples, the inhibitor solution is replaced with phosphate buffer (0.5 M, pH = 7.6). The incubation time for all components without L-carnitine is 5 min at 37 °C. The reaction was started by adding L-carnitine, and its progress was monitored by reading the change in absorbance at 405 nm in kinetic mode. The concentrations of the components in the final volume were, c (DTNB) = 114 μM, c (TRIS) = 100 mM, c (acetyl-CoA) = 58 μM, c (CAT) = 4 U/mL and c (L-carnitine) = 50.56 μM. The time for reading the results was the first minute after starting the reaction.

[2] = biological target: T1, carnitine acetyltransferase (CAT); assay: Kinetic studies of CAT inhibition mechanism (Michaelis-Menten / Lineweaver-Burk, SigmaPlot regression); assay type: biochemical, pigeon; details: for Ki: mixed-type inhibition model, L-carnitine varied; for Type / mechanism of inhibition: model chosen by R^2, AIC and Sy,x
Source text: These experiments allowed us to identify the inhibition mechanism and calculate Km, Vmax and Ki. We used SigmaPlot version 12.5 (Systat Software Inc., San Jose, CA, USA), which includes modules for regression analysis and various inhibition models. This software also lets us choose the mechanism of inhibition with the highest correlation factors (coefficient of determination (R^2) and Akaike information coefficient (AIC)) and the lowest Sy,x value. The numerical results are summarized in Table 1, while the corresponding Lineweaver–Burk and Michaelis–Menten kinetic plots are available in the Supplementary Materials.
(Michaelis-Menten) and 1/v0 vs. […] (Lainweaver-Burke) relationships. For this purpose, five solutions with different concentrations of the inhibitor and five solutions with different concentrations of L-carnitine were prepared. […] The time for reading the results is every six seconds for three minutes after the start of the reaction, which corresponds to the end of the linear interval. The initial velocity v0 was determined using the method proposed by Baici, by calculating the cut-off of the v vs. t (time) dependence for the linear interval of each of the reactions. Graphical dependencies are provided in the Supplementary Materials (Figures S1–S3).
Figure S2. Graphs representing the dependence of the initial velocity (v 0) on the concentration of the substrate [S], according to the model of Michaelis -Menten – left, and Lineweaver-Burk – right, for reversible a) mixed, b) non-competitive, c) uncompetitive and d) competitive inhibition. The concentration of the inhibitor - compound cis-8 are 0 μM, 25.6 μM, 51.2 μM and 68.3 μM, concentration of L-carnitine are 94 μM, 180 μM, 370 μM, 750 μM and 1500 μM.
Figure S3. Graphs representing the dependence of the initial velocity (v 0) on the concentration of […]
for reversible a) mixed, b) uncompetitive, c) non-competitive and d) competitive inhibition. The concentration of the inhibitor - compound trans-8 are 0 μM, 26.0 μM, 52.0 and 69.4 μM,

[3] = biological target: carnitine acetyltransferase (CAT); design: method as in PMID 39942839; details: positive control; ref [21]; cited from earlier work
[4] = fit to competitive inhibition model
[5] = fit to non-competitive inhibition model
[6] = fit to uncompetitive inhibition model
[7] = non-competitive inhibition model

CCCC1OC(=O)c2ccccc2C1C(=O)O (mixture of isomers) [M2-1, Cis- and Trans-(±)-3-Propyl-3,4-Dihydro-1-Oxo-1H-Isochromene-4-Carboxylic Acids]
CAT inhibition (%) ([1]; inhibitor 100 μM): 1% | CAT inhibition (%) ([1]; inhibitor 250 μM): 3% | CAT inhibition (%) ([1]; inhibitor 1000 μM): 7%

CCCCCCCC1OC(=O)c2ccccc2C1C(=O)O (racemic) [cis-2, Cis- and Trans-(±)-3-Heptyl-3,4-Dihydro-1-Oxo-1H-Isochromene-4-Carboxylic Acids]
inhibition at 100 µM [1]: 3% | inhibition at 250 µM [1]: 10% | inhibition at 1000 µM [1]: 16%

CCCCCCCCCC1OC(=O)c2ccccc2C1C(=O)O (racemic) [cis-3, Cis- and Trans-(±)-3,4-Dihydro-3-Nonyl-1-Oxo-1H-Isochromene-4-Carboxylic Acids]
inhibition at 100 µM [1]: 9% | inhibition at 250 µM [1]: 28% | inhibition at 1000 µM [1]: 97%

CCCCCCCCCCC1OC(=O)c2ccccc2C1C(=O)O (racemic) [cis-4, Cis- and Trans-(±)-3-Decyl-3,4-Dihydro-1-Oxo-1H-Isochromene-4-Carboxylic Acids]
CAT inhibition (%) ([1]; inhibitor 100 μM, 100 µM): 31% | inhibition at 250 µM [1]: 96% | inhibition at 1000 µM [1]: 97%

CCCCCCCC1OC(=O)c2cc(OC)c(OC)cc2C1C(=O)O (racemic) [cis-6, Cis- and Trans-(±)-3-Heptyl-3,4-Dihydro-6,7-Dimethoxy-1-Oxo-1H-Isochromene-4-Carboxylic Acids]
inhibition at 1000 µM [1]: 27%

CCCCCCCCCC1OC(=O)c2cc(OC)c(OC)cc2C1C(=O)O (racemic) [cis-7, Cis- and Trans-(±)-3,4-Dihydro-6,7-Dimethoxy-3-Nonyl-1-Oxo-1H-Isochromene-4-Carboxylic Acids]
inhibition at 100 µM [1]: 8% | inhibition at 250 µM [1]: 43% | inhibition at 1000 µM [1]: 85%

CCCCCCCCCCC1OC(=O)c2cc(OC)c(OC)cc2C1C(=O)O (racemic) [cis-8, Cis- and Trans-(±)-3-Decyl-3,4-Dihydro-6,7-Dimethoxy-1-Oxo-1H-Isochromene-4-Carboxylic Acids]
inhibition at 100 µM [1]: 44% | inhibition at 250 µM [1]: 71% | inhibition at 1000 µM [1]: 85% | AIC [2, 4]: −1519.782 | Sy,x [2, 4]: 5.211 × 10^−9 | AIC ([2]; fit to mixed inhibition model): −1562.764 | Sy,x ([2]; fit to mixed inhibition model): 2.987 × 10^−9 | AIC [2, 5]: −1565.380 | Sy,x [2, 5]: 2.947 × 10^−9 | AIC [2, 6]: −1550.555 | Sy,x [2, 6]: 3.547 × 10^−9 | α ([2]; mixed inhibition model): 0.97 | Ki [2]: 130 µM | Type / mechanism of inhibition [2]: mixed-type inhibitors; also recorded: allosteric inhibitor | Type / mechanism of inhibition ([2]; listed as cis-3-decyl-6,7-dimethoxy-3,4-dihydroisocoumarin-4-carboxylic acid): mixed inhibition | α [2, 7]: 1

COc1cc2c(cc1OC)C(C(=O)O)C(c1cccc(OC)c1OC)OC2=O (racemic) [cis-10, Cis- and Trans-(±)-3,4-Dihydro-3-(2,3-Dimethoxyphenyl)-6,7-Dimethoxy-1-Oxo-1H-Isochromene-4-Carboxylic Acids]
inhibition at 100 µM [1]: 1% | inhibition at 250 µM [1]: 2% | inhibition at 1000 µM [1]: 12%

CCCCCCCC1OC(=O)c2ccccc2C1C(=O)O (racemic) [trans-2, Cis- and Trans-(±)-3-Heptyl-3,4-Dihydro-1-Oxo-1H-Isochromene-4-Carboxylic Acids]
CAT inhibition (%) ([1]; inhibitor 100 μM, 100 µM): 4% | CAT inhibition (%) ([1]; inhibitor 250 μM, 250 µM): 6% | CAT inhibition (%) ([1]; inhibitor 1000 μM, 1000 µM): 25%

CCCCCCCCCC1OC(=O)c2ccccc2C1C(=O)O (racemic) [trans-3, Cis- and Trans-(±)-3,4-Dihydro-3-Nonyl-1-Oxo-1H-Isochromene-4-Carboxylic Acids]
CAT inhibition (%) ([1]; inhibitor 100 μM, 100 µM): 17% | CAT inhibition (%) ([1]; inhibitor 250 μM, 250 µM): 40% | CAT inhibition (%) ([1]; inhibitor 1000 μM, 1000 µM): 91%

CCCCCCCCCCC1OC(=O)c2ccccc2C1C(=O)O (racemic) [trans-4, Cis- and Trans-(±)-3-Decyl-3,4-Dihydro-1-Oxo-1H-Isochromene-4-Carboxylic Acids]
CAT inhibition (%) ([1]; inhibitor 100 μM, 100 µM): 54% | CAT inhibition (%) ([1]; inhibitor 250 μM, 250 µM): 79% | CAT inhibition (%) ([1]; inhibitor 1000 μM): 97%

CCCCCCCCCCC1OC(=O)c2cc(OC)c(OC)cc2C1C(=O)O (racemic) [trans-8, Cis- and Trans-(±)-3-Decyl-3,4-Dihydro-6,7-Dimethoxy-1-Oxo-1H-Isochromene-4-Carboxylic Acids]
AIC [2, 4]: −1490.723 | Sy,x [2, 4]: 7.493 × 10^−9 | AIC ([2]; fit to mixed inhibition model): −1548.364 | Sy,x ([2]; fit to mixed inhibition model): 3.576 × 10^−9 | AIC [2, 5]: −1542.332 | Sy,x [2, 5]: 3.931 × 10^−9 | AIC [2, 6]: −1548.795 | Sy,x [2, 6]: 3.626 × 10^−9 | α ([2]; mixed inhibition model): 0.21 | Ki [2]: 377 µM | Type / mechanism of inhibition [2]: mixed-type inhibitors | Type / mechanism of inhibition ([2]; listed as trans-3-decyl-6,7-dimethoxy-3,4-dihydroisocoumarin-4-carboxylic acid): mixed inhibition | α [2, 7]: 1

COc1cc2c(cc1OC)C(C(=O)O)C(c1ccccc1)OC2=O (racemic) [trans-9, Cis- and Trans-(±)-3,4-Dihydro-6,7-Dimethoxy-1-Oxo-3-Phenyl-1H-Isochromene-4-Carboxylic Acids]
inhibition at 100 µM [1]: 1%

C[N+](C)(C)NCCC(=O)[O-] [Meldonium]
IC50 [3]: 11400 µM

COc1ccc(OC)c(C2OC(=O)c3cc(OC)c(OC)cc3C2C(=O)O)c1 (stereo not drawn) [cis-11, Cis- and Trans-(±)-3,4-Dihydro-3-(2,5-Dimethoxyphenyl)-6,7-Dimethoxy-1-Oxo-1H-Isochromene-4-Carboxylic Acids]
inhibition at 100 µM [1]: 1% | inhibition at 250 µM [1]: 6% | inhibition at 1000 µM [1]: 22%
